This is an account of results in patent publication US10047096B2, “Substituted pyridobenzodiazepinone-derivatives and use thereof” (Bayer Pharma Aktiengesellschaft, priority 2014, dated 2018).

human PDGFRβ, sequence (P09619 561-1106): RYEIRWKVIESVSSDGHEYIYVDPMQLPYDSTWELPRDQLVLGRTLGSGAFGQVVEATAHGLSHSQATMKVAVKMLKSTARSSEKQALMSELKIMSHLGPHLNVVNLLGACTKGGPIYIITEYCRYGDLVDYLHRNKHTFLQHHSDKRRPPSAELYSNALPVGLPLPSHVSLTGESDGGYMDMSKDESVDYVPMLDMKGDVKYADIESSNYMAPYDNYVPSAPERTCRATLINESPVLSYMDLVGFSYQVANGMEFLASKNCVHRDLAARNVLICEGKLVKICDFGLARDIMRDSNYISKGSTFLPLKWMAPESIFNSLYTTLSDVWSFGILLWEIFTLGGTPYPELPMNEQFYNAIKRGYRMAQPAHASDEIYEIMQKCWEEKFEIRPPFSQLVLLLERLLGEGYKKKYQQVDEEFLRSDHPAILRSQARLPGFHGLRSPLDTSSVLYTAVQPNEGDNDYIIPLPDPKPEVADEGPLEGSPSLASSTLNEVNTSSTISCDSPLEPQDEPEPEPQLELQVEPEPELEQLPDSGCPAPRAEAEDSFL

The assay addresses human PDGFRβ (Homo sapiens (Human), UniProt P09619). In words: PDGFRβ kinase assay (PDGFRβ-HTRF). Type of assay: biochemical. The settings on record: 10 μM ATP; some mean values from multiple determinations. The gist of the method:
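GST-fused human PDGFRβ fragment (R561-L1106) from Sf9 cells was preincubated 15 min with compound in 50 mM HEPES pH 7.5, 10 mM MgCl2, 2.5 mM DTT, 0.01% Triton X-100; substrate was biotinylated poly-Glu,Tyr (4:1).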
For `Cc1ccc(O)cc1Nc1ccnc2c1C(=O)Nc1cc(CNCCC(=O)N(C)C)ccc1N2` [Example 143], it took 5.55 nM to reach half-maximal inhibition (IC50). This counts as single-digit nanomolar.

`CC[C@@H](C)[C@@H](CO)NCc1ccc2c(c1)NC(=O)c1c(Nc3cc(O)c(C)cc3F)ccnc1N2` [Example 172, 4-[(2-Fluoro-5-hydroxy-4-methylphenyl)amino]-8-({[(2S,3R)-1-hydroxy-3-methylpentan-2-yl]amino}methyl)-6,11-dihydro-5H-pyrido[2,3-b][1,5]benzodiazepin-5-one] yielded an IC50 of 4.11 nM.

Regarding `Cc1cc(F)c(Nc2ccnc3c2C(=O)Nc2cc(CN4CCN(CCO)CC4)ccc2N3)cc1O` [Example 47, 4-[(2-Fluoro-5-hydroxy-4-methylphenyl)amino]-8-{[4-(2-hydroxyethyl)piperazin-1-yl]methyl}-6,11-dihydro-5H-pyrido[2,3-b][1,5]benzodiazepin-5-one], 3.67 nM corresponded to half-maximal inhibition (IC50).

Consider `Cc1cc(F)c(Nc2ccnc3c2C(=O)Nc2cc(C(N)=O)ccc2N3)cc1O` [Example 80, 4-[(2-Fluoro-5-hydroxy-4-methylphenyl)amino]-5-oxo-6,11-dihydro-5H-pyrido[2,3-b][1,5]benzodiazepine-8-carboxamide], for which the half-inhibitory concentration (IC50) stood at 7.44 nM.

Regarding `Cc1ccc(O)cc1Nc1ccnc2c1C(=O)Nc1cc(CNCc3cccc(Cl)c3)ccc1N2` [Example 15, 8-{[(3-Chlorobenzyl)amino]methyl}-4-[(5-hydroxy-2-methylphenyl)amino]-6,11-dihydro-5H-pyrido[2,3-b][1,5]benzodiazepin-5-one], half-maximal inhibition (IC50) required 5.77 nM.

With `CCCCN(CC)Cc1ccc2c(c1)NC(=O)c1c(Nc3cc(O)c(C)cc3F)ccnc1N2` [Example 53, 8-{[Butyl(ethyl)amino]methyl}-4-[(2-fluoro-5-hydroxy-4-methylphenyl)amino]-6,11-dihydro-5H-pyrido[2,3-b][1,5]benzodiazepin-5-one], the IC50 worked out at 0.962 nM.

`Cc1cc(F)c(Nc2ccnc3c2C(=O)Nc2cc(CN4CCNCC4)ccc2N3)cc1O` [Example 197, 4-[(2-Fluoro-5-hydroxy-4-methylphenyl)amino]-8-(piperazin-1-ylmethyl)-6,11-dihydro-5H-pyrido[2,3-b][1,5]benzodiazepin-5-one] returned an IC50 of 0.861 nM.

`Cc1ccc(O)cc1Nc1ccnc2c1C(=O)Nc1cc(CNCC(C)N3CCOCC3)ccc1N2` (stereo not shown) [Example 135] displayed an IC50 of 5.74 nM. Against the preceding compound, the IC50 is about 6.7-fold higher.

As to `Cc1ccc(O)cc1Nc1ccnc2c1C(=O)Nc1cc(CNCC(N)=O)ccc1N2` [Example 16, N^2-({4-[(5-Hydroxy-2-methylphenyl)amino]-5-oxo-6,11-dihydro-5H-pyrido[2,3-b][1,5]benzodiazepin-8-yl}methyl)glycinamide], 7.05 nM corresponded to half-maximal inhibition (IC50). This IC50 and that of the compound before are within 1.5-fold of each other.

`Cc1ccc(O)cc1Nc1ccnc2c1C(=O)Nc1cc(CNCC3CCN(C(C)C)C3)ccc1N2` (stereo not shown) [Example 140] had a 50% inhibitory concentration (IC50) of 1.64 nM. Compared with the last compound, the IC50 is about 4.3-fold lower.

Compound `Cc1ccc(O)cc1Nc1ccnc2c1C(=O)Nc1cc(CNC3CCN(C)CC3)ccc1N2` [Example 138] came in with an IC50 of 2.41 nM.

`CCC(C)CNCc1ccc2c(c1)NC(=O)c1c(Nc3cc(O)ccc3C)ccnc1N2` (stereo not shown) [Example 153] showed an IC50 of 3.61 nM.

On to `Cc1ccc(O)cc1Nc1ccnc2c1C(=O)Nc1cc(CNC(C)CN(C)C)ccc1N2` (stereo not shown) [Example 122], for which the IC50 came out at 3.24 nM.

In turn, `N#Cc1ccc2c(c1)NC(=O)c1c(Nc3cc(O)c(F)c(F)c3)ccnc1N2` [Example 8, 4-[(3,4-Difluoro-5-hydroxyphenyl)amino]-5-oxo-6,11-dihydro-5H-pyrido[2,3-b][1,5]benzodiazepine-8-carbonitrile] had an IC50 of 4.76 nM.

Compound `Cc1cc(F)c(Nc2ccnc3c2C(=O)Nc2cc(CN4CCCC(O)CC4)ccc2N3)cc1O` (racemic) [Example 62, rac-4-[(2-Fluoro-5-hydroxy-4-methylphenyl)amino]-8-[(4-hydroxyazepan-1-yl)methyl]-6,11-dihydro-5H-pyrido[2,3-b][1,5]benzodiazepin-5-one] returned a half-inhibitory concentration (IC50) of 1.39 nM.

`Cc1cc(F)c(Nc2ccnc3c2C(=O)Nc2cc(CN4CCCC(OCC(F)(F)F)C4)ccc2N3)cc1O` (racemic) [Example 89, rac-4-[(2-Fluoro-5-hydroxy-4-methylphenyl)amino]-8-{[3-(2,2,2-trifluoroethoxy)piperidin-1-yl]methyl}-6,11-dihydro-5H-pyrido[2,3-b][1,5]benzodiazepin-5-one]: the IC50 came out at 3.51 nM.

Consider `Cc1cc(F)c(Nc2ccnc3c2C(=O)Nc2cc(C(=O)N4CCC(CCO)CC4)ccc2N3)cc1O` [Example 161, 4-[(2-Fluoro-5-hydroxy-4-methylphenyl)amino]-8-{[4-(2-hydroxyethyl)piperidin-1-yl]carbonyl}-6,11-dihydro-5H-pyrido[2,3-b][1,5]benzodiazepin-5-one], for which the IC50 was found to be 10.7 nM.

Compound `CCN(CCN)Cc1ccc2c(c1)NC(=O)c1c(Nc3cc(O)c(C)cc3F)ccnc1N2` [Example 200, 8-{[(2-Aminoethyl)(ethyl)amino]methyl}-4-[(2-fluoro-5-hydroxy-4-methylphenyl)amino]-6,11-dihydro-5H-pyrido[2,3-b][1,5]benzodiazepin-5-one] had a half-inhibitory concentration (IC50) of 0.727 nM.

`Cc1cc(F)c(Nc2ccnc3c2C(=O)Nc2cc(CN4CC[C@@H](N)C4)ccc2N3)cc1O` [Example 216, 8-{[(3R)-3-Aminopyrrolidin-1-yl]methyl}-4-[(2-fluoro-5-hydroxy-4-methylphenyl)amino]-6,11-dihydro-5H-pyrido[2,3-b][1,5]benzodiazepin-5-one] displayed an IC50 of 1.12 nM.

`Cc1ccc(O)cc1Nc1ccnc2c1C(=O)Nc1cc(CNCCC(F)(F)F)ccc1N2` [Example 115] displayed an IC50 of 3.93 nM.

Consider `CCNCc1ccc2c(c1)NC(=O)c1c(Nc3cc(O)ccc3C)ccnc1N2` [Example 25, 8-[(Ethylamino)methyl]-4-[(5-hydroxy-2-methylphenyl)amino]-6,11-dihydro-5H-pyrido[2,3-b][1,5]benzodiazepin-5-one], for which the IC50 was found to be 3.25 nM.

Compound `Cc1ccc(O)cc1Nc1ccnc2c1C(=O)Nc1cc(CNC[C@H](C)c3ccccc3)ccc1N2` [Example 117] had an IC50 of 3.46 nM.

Take `Cc1cc(F)c(Nc2ccnc3c2C(=O)Nc2cc(CN4CCC(N(C)C)CC4)ccc2N3)cc1O` [Example 211, 8-{[4-(Dimethylamino)piperidin-1-yl]methyl}-4-[(2-fluoro-5-hydroxy-4-methylphenyl)amino]-6,11-dihydro-5H-pyrido[2,3-b][1,5]benzodiazepin-5-one]: the midpoint of inhibition, the IC50, lay at 1.94 nM. This IC50 is about 1.8-fold lower than that of the compound before.

`Cc1ccc(O)cc1Nc1ccnc2c1C(=O)Nc1cc(CNC3CCC3)ccc1N2` [Example 20, 8-[(Cyclobutylamino)methyl]-4-[(5-hydroxy-2-methylphenyl)amino]-6,11-dihydro-5H-pyrido[2,3-b][1,5]benzodiazepin-5-one] gave an IC50 of 2.89 nM.

As for `N#Cc1ccc2c(c1)NC(=O)c1c(Nc3ccc(NS(=O)(=O)c4ccccc4)c(O)c3)ccnc1N2` [Example 6, N-{4-[(8-Cyano-5-oxo-6,11-dihydro-5H-pyrido[2,3-b][1,5]benzodiazepin-4-yl)amino]-2-hydroxyphenyl}benzenesulphonamide], the IC50 amounted to 689 nM.

Compound `Cc1cc(F)c(Nc2ccnc3c2C(=O)Nc2cc(CN4CCC(C)C(O)C4)ccc2N3)cc1O` (stereo not shown) [Example 59, 4-[(2-Fluoro-5-hydroxy-4-methylphenyl)amino]-8-[(3-hydroxy-4-methylpiperidin-1-yl)methyl]-6,11-dihydro-5H-pyrido[2,3-b][1,5]benzodiazepin-5-one] showed an IC50 of 1.82 nM.

In the case of `Cc1ccc(O)cc1Nc1ccnc2c1C(=O)Nc1cc(CNCCN3CCN(C)CC3)ccc1N2` [Example 109], the IC50 came out at 3.55 nM.

Compound `Cc1ccc(O)cc1Nc1ccnc2c1C(=O)Nc1cc(CNCC(O)CO)ccc1N2` (stereo not shown) [Example 148] displayed an IC50 of 1.52 nM.

Compound `COCCOCCOCCOCCOCCOCCOCCOCCNCc1ccc2c(c1)NC(=O)c1c(Nc3cc(O)c(C)cc3F)ccnc1N2` [Example 185, 4-[(2-Fluoro-5-hydroxy-4-methylphenyl)amino]-8-(2,5,8,11,14,17,20,23-octaoxa-26-azaheptacosan-27-yl)-6,11-dihydro-5H-pyrido[2,3-b][1,5]benzodiazepin-5-one] showed an IC50 of 25 nM.

Take `CCC(CC)NCc1ccc2c(c1)NC(=O)c1c(Nc3cc(O)ccc3C)ccnc1N2` [Example 155]: the IC50 worked out at 2.33 nM.

The compound `CCN(CC)Cc1ccc2c(c1)NC(=O)c1c(Nc3cc(O)ccc3C)ccnc1N2` [Example 39, 8-[(Diethylamino)methyl]-4-[(5-hydroxy-2-methylphenyl)amino]-6,11-dihydro-5H-pyrido[2,3-b][1,5]benzodiazepin-5-one] gave an IC50 of 1.86 nM.

`Cc1ccc(O)cc1Nc1ccnc2c1C(=O)Nc1cc(CNCc3cccnc3)ccc1N2` [Example 146] came in with a concentration for half-maximal inhibition (IC50) of 7.56 nM.

Turning to `Cc1cc(F)c(Nc2ccnc3c2C(=O)Nc2cc(C(=O)O)ccc2N3)cc1O` [Example 79, 4-[(2-Fluoro-5-hydroxy-4-methylphenyl)amino]-5-oxo-6,11-dihydro-5H-pyrido[2,3-b][1,5]benzodiazepine-8-carboxylic acid], the IC50 stood at 213 nM.

As to `Cc1ccc(O)cc1Nc1ccnc2c1C(=O)Nc1cc(CNc3ccc4[nH]cnc4c3)ccc1N2` [Example 104], the midpoint of inhibition, the IC50, lay at 12.2 nM.

On to `Cc1ccc(O)cc1Nc1ccnc2c1C(=O)Nc1cc(CNCCCOC(C)C)ccc1N2` [Example 149], for which the IC50 amounted to 1.74 nM.

Compound `Cc1cc(F)c(Nc2ccnc3c2C(=O)Nc2cc(CN(C)C[C@@H](C)O)ccc2N3)cc1O` [Example 201, 4-[(2-Fluoro-5-hydroxy-4-methylphenyl)amino]-8-({[(2R)-2-hydroxypropyl](methyl)amino}methyl)-6,11-dihydro-5H-pyrido[2,3-b][1,5]benzodiazepin-5-one] yielded an IC50 of 1.35 nM.

Take `Cc1cc(F)c(Nc2ccnc3c2C(=O)Nc2cc(CN(C)CCN(C)C)ccc2N3)cc1O` [Example 203, 8-({[2-(Dimethylamino)ethyl](methyl)amino}methyl)-4-[(2-fluoro-5-hydroxy-4-methylphenyl)amino]-6,11-dihydro-5H-pyrido[2,3-b][1,5]benzodiazepin-5-one]: inhibition was half-maximal at 1.87 nM (IC50). The IC50 values of the last two compounds are within 1.5-fold of each other.
